The subject of experiment [1] is mononuclear cells (MNC). The experiment is described as follows: Colony-forming cells (CFUs) from mixed cells (MNC) culture. As to conditions: FIG. 18. The class given is cell-based, human. As for the experimental part: Self-renewal potential evaluations: The self-renewal potential of stem cells was determined in vitro by long-term colony formation. Cells were washed and seeded in a semi-solid methylcellulose medium supplemented with 2 IU/ml erythropoietin (Eprex, Cilage AG Int., Switzerland), stem cell factor and IL-3, both at 20 ng/ml (Perpo Tech), and G-CSF and GM-CSF, both at 10 ng/ml (Perpo Tech). The resulting colonies were scored after two weeks of incubation at 37° C. in a humidified atmosphere of 5% CO2 in air. Colonies were classified as blast, mixed, erythroid, myeloid, and megakaryocytic, according to their cellular composition.
Ex vivo expansion of progenitor cells: The non-purified mononuclear cells (MNC), obtained as described hereinabove, were seeded in Culture Bags (American Fluoroseal Corp.), with alpha minimal essential medium supplemented with 10% fetal bovine serum (FBS, Biological Industries), at a concentration of about 10^6 cells/ml. The purified CD34^+ cells were similarly seeded in the Culture Bags, at a concentration of […]. The media were supplemented with TEPA chelator and/or with the following human recombinant cytokines (all obtained from Perpo Tech, Inc., Rocky Hill, N.J.): Thrombopoietin (TPO), 50 ng/ml; interleukin 6 (IL-6), 50 ng/ml; FLT-3 ligand, 50 ng/ml and a stem cell factor (SCF), 50 ng/ml; occasionally SCF was replaced by IL-3, 20 ng/ml. […]

The subject of experiment [2] is mononuclear cells (MNC). The experiment is described as follows: Morphological analysis of cells from long-term MNC cultures. In kind it is cell-based, human. The following applies: untreated: fully differentiated. The protocol: Morphological assessment: In order to characterize the resulting culture populations, aliquots of cells were deposited on a glass slide (cytocentrifuge, Shandon, Runcorn, UK), fixed and stained in May-Grunwald and Giemsa stain. Cloning potential evaluation, morphological assessment and surface antigen analyses were carried out as described in the experimental procedures section of Example 1 above.

The next experiment concerns platelets. The experiment in a line: In vivo recovery of platelets after gamma-irradiation. Also noted: species or system mice (BALB/C X C57B1/6/F1). The following applies: single treatment, 30 μM; irradiated mice. As for the experimental part: In this experiment, ten mice (BALB/C X C57B1/6/F1) were gamma-irradiated (700 cGy) so as to mimic an irradiation therapy situation that destroys platelets. One day after irradiation five (out of ten) mice were administered with 30 μM of Cu-TEPA, while the other five mice were non-treated. The platelet levels in all mice were enumerated one week after irradiation. […] The results of this experiment illustrate that a copper chelate can effectively enhance the recovery of hematopoietic cells in subjects exposed to irradiation treatment.

In the next experiment the test system is CD34+ cells. The experiment in a line: Morphological assessment of cultured CD34+ cells. In kind it is cell-based, human. As to conditions: 8-weeks culture; control: mainly differentiated cells; FIGS. 3a-b. An excerpt: Morphological assessment: In order to characterize the resulting culture populations, aliquots of cells were deposited on a glass slide (cytocentrifuge, Shandon, Runcorn, UK), fixed and stained in May-Grunwald and Giemsa stain.

`NCCNCCNCCNCCN` [TEPA chelator, tetraethylenepentamine]: the “number of CD34+ CFUs” value with mononuclear cells (MNC) [1] (after 2 weeks) was “non-detectable”; in the experiment with mononuclear cells (MNC) [1] (after 10 weeks), 3.2×10^7 cells/ml. Also, the “morphological analysis of cells” value in the experiment on mononuclear cells (MNC) [2] is on record as “high proportion of non-differentiated cells”.
On to `NCCNCCNCCNCCN.[Cl-].[Cl-].[Cu+2]` [TEPA-Cu chelate, tetraethylenepentamine-copper chelate], for which the “recovery of platelets vs non-treated control” value in the experiment with platelets is recorded as “significantly accelerated”. For the same compound, the “morphological analysis of culture” value in the experiment on CD34+ cells was “mainly blast-like cells”.

These data come from patent publication US7655225B2, “Methods of expanding stem and progenitor cells and expanded cell populations obtained thereby” (Gamida Cell, Ltd., priority 2002, dated 2010).
